According to US20180245048A1, “METHODS AND COMPOSITIONS FOR EXPANSION AND DIFFERENTIATION OF SKELETAL MUSCLE STEM CELLS OR PROGENITOR CELLS” (AGENCY FOR SCIENCE, TECHNOLOGY AND RESEARCH, priority 2015, published 2018):

Experiments:
[1] = test system: induced pluripotent stem cell-derived myoblasts; test: PAX7 mRNA expression in induced pluripotent stem cell-derived myoblasts; format: cell-based, human; conditions: 20 ng/ml bFGF, 3 μM CHIR99021, 2.5 μg/ml DLL1, alone or combined; vs untreated control (FIG. 1)
[2] = test system: induced pluripotent stem cell-derived myotubes; test: qPCR screen of myogenic differentiation markers, 70 small molecules; format: cell-based, human; conditions: for MyoD, MyoG and MYHC (myosin heavy chain) expression: each individually, during drug-induced myogenesis from human iPSC (FIG. 9); for expression of differentiated myocyte markers MYOG, MYHC, MYH3, MYH8 and adult myotube markers MYH7, MYH2, MYH1: screen, vs untreated control (FIG. 9)
Description: FIG. 9 is a heat map showing the levels of MYOG, MYHC, MYH3, MYH8, MYH7, MYH2, MYH1 expression in induced pluripotent stem cell-derived myotubes after screening with 70 different small molecules related to the metabolomics findings, compared to an untreated control group.
Thus carnitine to facilitate fatty acid oxidation, the fatty acids linoleate, arachidonate and palmitate to fuel fatty acid oxidation were tested. It was also tested whether statin inhibitors of steroid synthesis, such as fluvastatin, and steroids like testosterone or progesterone could boost human myotube differentiation. Against this background, a variety of other small molecule drugs and metabolites were also screened, including OxPhos inhibitors and vitamins, to test their effects on myotube differentiation. A qPCR screen was then performed for various myogenic differentiation markers on human induced pluripotent stem cell-derived myoblasts exposed to these 70 conditions (FIG. 9).

[3] = test system: human induced pluripotent stem cell-derived myoblasts; test: qPCR screen of lineage markers (OCT3/4, NCAM, AFP, PAX7), 70 small molecules; format: cell-based; conditions: vs untreated control (FIG. 3); for PAX7 mRNA expression: during FGF/Wnt/Notch-induced myogenesis
Description: FIG. 3 is a heat map showing the levels of OCT3/4, NCAM, AFP and PAX7 mRNA expression in induced pluripotent stem cell-derived myoblasts after screening with 70 different small molecules related to the metabolomics findings, compared to an untreated control group.
Thus, the adenylyl cyclase agonist Forskolin was tested to induce cAMP synthesis, and cobalamin was administered to see if these compounds boosted the expansion of human myoblasts. It was also tested whether glutamine, hypoxanthine and thymidine—all of which are rate-limiting for nucleotide synthesis—could boost human myoblast expansion. Against this background, a variety of other small molecule drugs and metabolites were screened, including amino acids and fatty acids, thereby testing their effects on myoblast expansion. A real-time polymerase chain reaction (qPCR) screen was then performed for various lineage markers (pluripotency marker OCT3/4, neuromuscular marker NCAM, endoderm marker AFP, muscle marker Pax7) on human induced pluripotent stem cell-derived myoblasts exposed to these 70 conditions (FIG. 3).

Cc1cnc(-c2cnc(NCCNc3ccc(C#N)cn3)nc2-c2ccc(Cl)cc2Cl)[nH]1 [CHIR99021, 6-[[2-[[4-(2,4-dichlorophenyl)-5-(5-methyl-1H-imidazol-2-yl)-2 pyrimidinyl]amino]ethyl]amino]-3-pyridinecarbonitrile, reference compound]
PAX7 mRNA expression [1]: increase in PAX7 expression

CC(=O)OC(CC(=O)[O-])C[N+](C)(C)C (centres unmarked) [O-acetyl-carnitine]
MyoD, MyoG and MYHC (myosin heavy chain) expression [2]: specifically increase

C[N+](C)(C)CC(O)CC(=O)[O-] (centres unmarked) [carnitine]
MyoD, MyoG and MYHC (myosin heavy chain) expression [2]: specifically increase
expression of differentiated myocyte markers MYOG, MYHC, MYH3, MYH8 and adult myotube markers MYH7, MYH2, MYH1 [2]: increase expression

NC(=O)CC[C@H](N)C(=O)O [glutamine]
PAX7 mRNA expression [3]: specifically increase
AFP (endoderm marker) mRNA expression [3]: without increasing
NCAM (neuromuscular marker) mRNA expression [3]: increase
OCT3/4 (pluripotency marker) mRNA expression [3]: without increasing

O=c1[nH]cnc2nc[nH]c12 [hypoxanthine]
PAX7 mRNA expression [3]: specifically increase

CCCCC/C=C\C/C=C\CCCCCCCC(=O)O [linoleic acid]
MyoD, MyoG and MYHC (myosin heavy chain) expression [2]: specifically increase
expression of differentiated myocyte markers MYOG, MYHC, MYH3, MYH8 and adult myotube markers MYH7, MYH2, MYH1 [2]: increase expression

C[C@]12CC[C@H]3[C@@H](CCC4=CC(=O)CC[C@@]43C)[C@@H]1CC[C@@H]2O [testosterone, reference compound]
MyoD, MyoG and MYHC (myosin heavy chain) expression [2]: specifically increase
expression of differentiated myocyte markers MYOG, MYHC, MYH3, MYH8 and adult myotube markers MYH7, MYH2, MYH1 [2]: increase expression

Cc1cn([C@H]2C[C@H](O)[C@@H](CO)O2)c(=O)[nH]c1=O [thymidine]
PAX7 mRNA expression [3]: specifically increase

bFGF: FGF2 (basic fibroblast growth factor), FGF signalling agonist
PAX7 mRNA expression [1]: increase in PAX7 expression

cobalamin [vitamin B12]
PAX7 mRNA expression [3]: increase
PAX7 mRNA expression ([3]; listed as cobalamin): specifically increase
AFP (endoderm marker) mRNA expression [3]: without increasing
NCAM (neuromuscular marker) mRNA expression [3]: increase
OCT3/4 (pluripotency marker) mRNA expression [3]: without increasing
